The target of this assay is T1, bPGC (Beggiatoa sp. PS, UniProt Z9M4H6XJE9, K200E/D268K/T270G).
T1 construct: triple mutant of human codon-optimized bPAC, C-terminal YFP, expressed in Xenopus oocytes
T1 sequence (Z9M4H6XJE9 4-353 K200E/D268K/T270G): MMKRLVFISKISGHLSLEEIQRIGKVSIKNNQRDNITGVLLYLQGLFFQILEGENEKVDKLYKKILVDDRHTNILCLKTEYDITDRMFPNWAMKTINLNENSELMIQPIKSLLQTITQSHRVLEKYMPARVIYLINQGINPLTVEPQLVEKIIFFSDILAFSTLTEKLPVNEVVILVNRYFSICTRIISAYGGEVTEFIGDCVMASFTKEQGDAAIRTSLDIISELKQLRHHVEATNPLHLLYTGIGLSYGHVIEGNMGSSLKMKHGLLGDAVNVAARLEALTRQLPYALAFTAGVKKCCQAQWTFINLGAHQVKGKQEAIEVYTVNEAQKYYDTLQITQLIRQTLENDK
In words: cGMP immunoassay, extracts of intact oocytes. It counts as cell-based. The note with it: endogenous GTP, 464 nm light.

The structures appear in SMILES notation.

From publication PMC4569695, “Optogenetic manipulation of cGMP in cells and animals by the tightly light-regulated guanylyl-cyclase opsin CyclOp” (Nature Communications, 2015) come the findings set out here.

As for `Nc1nc2c(ncn2[C@@H]2O[C@H](COP(=O)(O)OP(=O)(O)OP(=O)(O)O)[C@@H](O)[C@H]2O)c(=O)[nH]1` [GTP], the “cGMP immunoassay, extracts of intact oocytes” value was “bPGC produced at least one cAMP for every four cGMP molecules under in vivo conditions”.
